Measured values published in ChEMBL document CHEMBL4616632, “Discovery of Cyclic Boronic Acid QPX7728, an Ultrabroad-Spectrum Inhibitor of Serine and Metallo-β-lactamases” (J Med Chem, 2020).

Columns and labels:
Acinetobacter baumannii [1] = experiment: Potentiation of cefepime-induced antibacterial activity against carbapenem-resistant Acinetobacter baumannii assessed as cefepime MIC90 at 8 ug/ml by broth microdilution method (Rvb > 32 ug/ml); format: functional
Enterobacterales [2] = experiment: Potentiation of cefepime-induced antibacterial activity against Enterobacterales assessed as cefepime MIC90 at 8 ug/ml by broth microdilution method (Rvb > 32 ug/ml); format: functional
Enterobacter cloacae = experiment: Inhibition of Enterobacter cloacae ECL1002 AmpC assessed as minimum concentration of compound needed to reduce the MIC of aztreonam to 4 ug/ml
Acinetobacter baumannii [3] = experiment: Potentiation of ceftolozane-induced antibacterial activity against carbapenem-resistant Acinetobacter baumannii assessed as ceftolozane MIC90 at 8 ug/ml by broth microdilution method (Rvb > 32 ug/ml); format: functional
[4] = Protein binding in rat plasma; format: ADME, cell-free; conditions: read-out: PPB (converted)
Enterobacterales [5] = experiment: Potentiation of cefepime-induced antibacterial activity against Enterobacterales assessed as cefepime MIC50 at 8 ug/ml by broth microdilution method (reference value: 32 ug/ml); format: functional
[6] = Inhibition of recombinant Escherichia coli AmpC using nitrocefin as substrate preincubated for 10 mins followed by substrate addition measured every 10 secs for 10 mins by spectrophotometrically analysis
Escherichia coli [7] = experiment: Inhibition of Escherichia coli KP308 SHV-5 assessed as minimum concentration of compound required to reduce the MIC of aztreonam to 4 ug/ml
[8] = AUC in rat at 100 mg/kg, po administered via gavage by HPLC/MS analysis; format: ADME, organism-based; conditions: in vivo
[9] = Cmax in rat at 300 mg/kg, iv administered as infusion for 0.5 hrs by HPLC/MS analysis; format: ADME, organism-based; parameters: dose 300 mg/kg, route intravenous; conditions: in vivo
[10] = Cmax in rat at 30 mg/kg, po administered via gavage by HPLC/MS analysis; format: ADME, organism-based; parameters: dose 30 mg/kg, route oral; conditions: in vivo
Dipeptidyl peptidase 9 = Dipeptidyl peptidase 9 (Homo sapiens, UniProt Q86TI2); experiment: Inhibition of mammalian DPP9 (unknown origin) using Lys-Pro-AMC as substrate preincubated for 10 mins followed by substrate addition measured after 30 mins
[11] = target: Beta-lactamase (Klebsiella pneumoniae) (UniProt Q93LQ9); experiment: Inhibition of Klebsiella pneumoniae KP1004 KPC-2 assessed as minimum concentration of compound needed to reduce the MIC of aztreonam to 4 ug/ml
Klebsiella pneumoniae [12] = experiment: Potentiation of ceftolozane-induced antibacterial activity against carbapenem-resistant Klebsiella pneumoniae assessed as ceftolozane MIC50 at 8 ug/ml by broth microdilution method (Rvb > 32 ug/ml); format: functional
Enterobacteriaceae [13] = experiment: Inhibition of NDM/VIM in carbapenem-resistant Enterobacteriaceae assessed as potentiation of cefepime-induced antibacterial activity by measuring cefepime MIC90 at 8 ug/ml by broth microdilution method (Rvb > 32 ug/ml)
Plasminogen = Plasminogen (Homo sapiens, UniProt P00747); experiment: Inhibition of mammalian plasmin (unknown origin) using H-D-VLK-pNA as substrate preincubated for 10 mins followed by substrate addition measured after 30 mins
Enterobacteriaceae [14] = experiment: Potentiation of cefepime-induced antibacterial activity against carbapenem-resistant Enterobacteriaceae assessed as cefepime MIC90 at 8 ug/ml by broth microdilution method (Rvb > 32 ug/ml); format: functional
Neutrophil elastase = Neutrophil elastase (Homo sapiens, UniProt P08246); experiment: Inhibition of mammalian neutrophil elastase (unknown origin) using MeOSuc-AAVP-AMC as substrate preincubated for 10 mins followed by substrate addition measured after 30 mins
Cathepsin G = Cathepsin G (Homo sapiens, UniProt P08311); experiment: Inhibition of mammalian cathepsin G (unknown origin) using Suc-AAPF-AMC as substrate preincubated for 10 mins followed by substrate addition measured after 30 mins
[15] = Cmax in rat at 100 mg/kg, iv administered as infusion for 0.5 hrs by HPLC/MS analysis; format: ADME, organism-based; parameters: dose 100 mg/kg, route intravenous; conditions: in vivo
Klebsiella pneumoniae [16] = experiment: Potentiation of meropenem-induced antibacterial activity in Klebsiella pneumoniae KP1244 by measuring meropenem MIC at 8 ug/ml by broth microdilution method (Rvb >64 ug/ml); format: functional
Acinetobacter baumannii [17] = experiment: Potentiation of cefepime-induced antibacterial activity against carbapenem-resistant Acinetobacter baumannii assessed as cefepime MIC50 at 8 ug/ml by broth microdilution method (Rvb > 32 ug/ml); format: functional
Acinetobacter baumannii [18] = experiment: Potentiation of meropenem-induced antibacterial activity against carbapenem-resistant Acinetobacter baumannii assessed as meropenem MIC50 at 8 ug/ml by broth microdilution method (Rvb > 32 ug/ml); format: functional
[19] = Half life in rat at 300 mg/kg, po administered via gavage by HPLC/MS analysis; format: ADME, organism-based; conditions: in vivo
Klebsiella pneumoniae [20] = experiment: (§1) Potentiation of meropenem-induced bacteriostatic activity against carbapenem-resistant Klebsiella pneumoniae KP1244 harboring KPC-3, SHV-11, and SHV-12 infected in Swiss-Webster mouse model of neutropenic thigh infection assessed as log change in bacterial count in thigh at 25 mg/kg, ip administered at 2 hrs interval for 24 hrs starting from 2 hr post infection and measured post last dose (reference value: 0.62 log10CFU); format: functional
[21] = Half life in rat at 300 mg/kg, iv administered as infusion for 0.5 hrs by HPLC/MS analysis; format: ADME, organism-based; conditions: in vivo
Enterobacteriaceae [22] = experiment: Inhibition of NDM/VIM in carbapenem-resistant Enterobacteriaceae assessed as potentiation of cefepime-induced antibacterial activity by measuring cefepime MIC50 at 8 ug/ml by broth microdilution method (Rvb > 32 ug/ml)
Chymotrypsin = Chymotrypsin (Homo sapiens, UniProt Q99895+P17538+P40313+Q6GPI1); experiment: Inhibition of mammalian chymotrypsin (unknown origin) using Suc-AAPF-AMC as substrate preincubated for 10 mins followed by substrate addition measured after 30 mins; format: protein assay
Escherichia coli [23] = experiment: Inhibition of Escherichia coli EC302 TEM-10 assessed as minimum concentration of compound needed to reduce the MIC of aztreonam to 4 ug/ml
Acinetobacter baumannii [24] = experiment: Inhibition of Acinetobacter baumannii AB1053 OXA-72 assessed as minimum concentration of compound needed to reduce the MIC of meropenem to 8 ug/ml
Enterobacteriaceae [25] = experiment: Inhibition of NDM/VIM in carbapenem-resistant Enterobacteriaceae assessed as potentiation of ceftolozane-induced antibacterial activity by measuring ceftolozane MIC50 at 8 ug/ml by broth microdilution method (Rvb > 32 ug/ml)
Klebsiella pneumoniae [26] = experiment: as §1, with “1” for “25”; format: functional
Enterobacteriaceae [27] = experiment: Inhibition of OXA-48 in carbapenem-resistant Enterobacteriaceae assessed as potentiation of ceftolozane-induced antibacterial activity by measuring ceftolozane MIC90 at 8 ug/ml by broth microdilution method (Rvb > 32 ug/ml)
Klebsiella pneumoniae [28] = experiment: Inhibition of Klebsiella pneumoniae KP1081 NDM-1 assessed as minimum concentration of compound required to reduce the MIC of biapenem to 1 ug/ml
[29] = Half life in rat at 100 mg/kg, iv administered as infusion for 0.5 hrs by HPLC/MS analysis; format: ADME, organism-based; conditions: in vivo
[30] = AUC in rat at 30 mg/kg, po administered via gavage by HPLC/MS analysis; format: ADME, organism-based; conditions: in vivo

Sequence of Neutrophil elastase (P08246 whole entry): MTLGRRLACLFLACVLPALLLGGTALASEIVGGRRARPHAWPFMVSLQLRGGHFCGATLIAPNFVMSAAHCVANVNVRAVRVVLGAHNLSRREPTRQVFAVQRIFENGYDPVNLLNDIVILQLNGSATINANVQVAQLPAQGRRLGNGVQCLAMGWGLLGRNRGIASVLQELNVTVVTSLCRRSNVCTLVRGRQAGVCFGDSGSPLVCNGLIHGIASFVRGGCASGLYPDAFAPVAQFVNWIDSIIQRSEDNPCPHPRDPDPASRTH
Sequence of Beta-lactamase (Klebsiella pneumoniae) (Q93LQ9 as listed by the source): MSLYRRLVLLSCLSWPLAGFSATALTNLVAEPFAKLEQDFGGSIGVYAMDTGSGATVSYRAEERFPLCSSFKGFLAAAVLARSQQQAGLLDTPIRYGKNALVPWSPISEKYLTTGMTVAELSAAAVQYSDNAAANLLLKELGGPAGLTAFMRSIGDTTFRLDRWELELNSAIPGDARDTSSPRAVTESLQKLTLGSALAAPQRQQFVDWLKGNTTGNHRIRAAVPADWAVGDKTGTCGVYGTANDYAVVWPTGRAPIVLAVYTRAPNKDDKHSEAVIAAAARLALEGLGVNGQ
Sequence of Cathepsin G (P08311 whole entry, the tested form may be a part): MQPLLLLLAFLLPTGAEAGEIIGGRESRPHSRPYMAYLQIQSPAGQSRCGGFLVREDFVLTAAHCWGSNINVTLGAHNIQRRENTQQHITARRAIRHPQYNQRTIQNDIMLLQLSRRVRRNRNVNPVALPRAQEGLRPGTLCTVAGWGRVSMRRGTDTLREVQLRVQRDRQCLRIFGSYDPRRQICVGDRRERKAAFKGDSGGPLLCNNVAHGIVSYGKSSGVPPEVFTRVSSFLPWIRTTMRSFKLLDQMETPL
Sequence of Plasminogen (P00747 97-580 limits assumed): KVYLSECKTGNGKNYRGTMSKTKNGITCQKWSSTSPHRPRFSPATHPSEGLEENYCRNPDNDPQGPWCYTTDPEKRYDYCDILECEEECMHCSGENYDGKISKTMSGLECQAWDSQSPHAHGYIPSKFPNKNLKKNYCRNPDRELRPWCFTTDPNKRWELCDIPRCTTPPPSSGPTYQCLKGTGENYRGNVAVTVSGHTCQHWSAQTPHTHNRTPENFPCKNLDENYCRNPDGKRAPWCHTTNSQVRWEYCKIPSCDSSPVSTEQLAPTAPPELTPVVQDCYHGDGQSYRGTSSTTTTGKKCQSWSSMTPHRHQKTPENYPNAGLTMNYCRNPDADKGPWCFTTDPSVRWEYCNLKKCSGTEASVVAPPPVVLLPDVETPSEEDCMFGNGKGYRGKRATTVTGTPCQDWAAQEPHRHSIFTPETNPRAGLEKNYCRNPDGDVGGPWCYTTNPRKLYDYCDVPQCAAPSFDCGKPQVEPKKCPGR
Sequence of Plasminogen (P00747 581-810 limits assumed): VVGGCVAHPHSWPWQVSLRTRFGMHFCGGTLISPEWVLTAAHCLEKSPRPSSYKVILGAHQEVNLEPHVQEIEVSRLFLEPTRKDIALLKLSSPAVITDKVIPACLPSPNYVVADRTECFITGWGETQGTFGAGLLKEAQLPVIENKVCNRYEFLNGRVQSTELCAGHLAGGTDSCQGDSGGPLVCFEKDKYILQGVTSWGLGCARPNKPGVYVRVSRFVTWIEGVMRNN
Sequence of Dipeptidyl peptidase 9 (Q86TI2 whole entry): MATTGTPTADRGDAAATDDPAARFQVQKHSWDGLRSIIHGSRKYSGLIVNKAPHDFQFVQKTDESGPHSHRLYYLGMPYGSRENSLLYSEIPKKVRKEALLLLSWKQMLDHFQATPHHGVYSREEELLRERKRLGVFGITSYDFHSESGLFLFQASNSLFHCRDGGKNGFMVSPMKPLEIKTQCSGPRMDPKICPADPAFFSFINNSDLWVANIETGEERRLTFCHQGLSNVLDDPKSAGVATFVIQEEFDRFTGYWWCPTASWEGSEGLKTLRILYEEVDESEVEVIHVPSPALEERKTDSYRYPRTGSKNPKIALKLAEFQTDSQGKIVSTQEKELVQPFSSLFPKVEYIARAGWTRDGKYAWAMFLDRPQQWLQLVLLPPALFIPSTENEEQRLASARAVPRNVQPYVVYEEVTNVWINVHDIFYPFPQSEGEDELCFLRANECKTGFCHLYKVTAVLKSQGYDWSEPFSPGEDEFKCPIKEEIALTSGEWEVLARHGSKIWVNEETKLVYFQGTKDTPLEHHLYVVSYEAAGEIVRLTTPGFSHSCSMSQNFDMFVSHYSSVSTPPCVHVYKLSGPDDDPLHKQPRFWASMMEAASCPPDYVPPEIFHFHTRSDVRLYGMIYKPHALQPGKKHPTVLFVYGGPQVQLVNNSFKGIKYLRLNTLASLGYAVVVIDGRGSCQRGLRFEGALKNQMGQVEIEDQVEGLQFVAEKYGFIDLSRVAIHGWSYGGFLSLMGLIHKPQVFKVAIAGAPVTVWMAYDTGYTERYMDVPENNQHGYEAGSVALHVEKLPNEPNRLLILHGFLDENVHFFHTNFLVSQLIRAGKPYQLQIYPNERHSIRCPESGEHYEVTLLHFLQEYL

Compound O=C(O)c1c(F)ccc2c1OB(O)[C@@H]1C[C@H]21 [XERUBORBACTAM] has an MIC90 (Acinetobacter baumannii [1]) of 32 µg/mL, an MIC90 (Enterobacterales [2]) of 0.25 µg/mL and an MEC (Enterobacter cloacae) of 0.6 µg/mL. For the same compound, the MIC90 (Acinetobacter baumannii [3]) was 32 µg/mL, the fraction unbound [4] was 0.15 and the MIC50 (Enterobacterales [5]) was ≤ 0.06 µg/mL. It also gave a Ki [6] of 0.0085 µM, an MEC (Escherichia coli [7]) of 0.3 µg/mL and an AUC [8] of 89700 ng·h/mL. The Cmax [9] was 544 µg/mL, the Cmax [10] was 8.6 µg/mL and the IC50 (Dipeptidyl peptidase 9) was > 1000 µM. The MEC [11] was 0.3 µg/mL, the MIC50 (Klebsiella pneumoniae [12]) was 0.125 µg/mL and the MIC90 (Enterobacteriaceae [13]) was 1 µg/mL. The IC50 (Plasminogen) was > 1000 µM, the MIC90 (Enterobacteriaceae [14]) was 0.5 µg/mL and the IC50 (Neutrophil elastase) was 132 µM. For the same compound, the IC50 (Cathepsin G) was 666 µM, the Cmax [15] was 208 µg/mL and the MIC (Klebsiella pneumoniae [16]) was 0.25 µg/mL. For the same compound, the MIC50 (Acinetobacter baumannii [17]) was 16 µg/mL, the MIC50 (Acinetobacter baumannii [18]) was 0.5 µg/mL and the half-life [19] was 3.65 h. The Activity (Klebsiella pneumoniae [20]) was -1.15 log10CFU, the half-life [21] was 1.18 h and the MIC50 (Enterobacteriaceae [22]) was < 0.06 µg/mL. The IC50 (Chymotrypsin) was > 1000 µM, the MEC (Escherichia coli [23]) was 0.16 µg/mL and the MEC (Acinetobacter baumannii [24]) was 0.6 µg/mL. It also gave an MIC50 (Enterobacteriaceae [25]) of 16 µg/mL, an Activity (Klebsiella pneumoniae [26]) of -0.42 log10CFU and an MIC90 (Enterobacteriaceae [27]) of 0.5 µg/mL. For the same compound, the MEC (Klebsiella pneumoniae [28]) was 0.6 µg/mL, the half-life [29] was 1.46 h and the AUC [30] was 34000 ng·h/mL.
